Seven molecules from patent publication US20190008957A1, “COMBINATION THERAPIES INCLUDING INHIBITORS OF THE EXTRACELLULAR DOMAIN OF E-CADHERIN” (The Research Foundation for The State of New York, priority 2012, published 2019) can be followed below.

Assay [1] deals with lysosome and ubiquitin-proteasome pathways. Put plainly: Lysosome/proteasome inhibitor rescue of anti-sEcad mAb-induced apoptosis and HER1-4 expression. It counts as cell-based. The protocol: Cellular apoptosis was quantitatively determined using the Cell Death Apoptosis Detection ELISA Plus kit (Boehringer Mannheim), which is based on the detection of DNA-histone complexes in the form of mono- and oligo-nucleosomes, according to the manufacturer's instructions. Briefly, cells were treated in the presence or absence of various concentrations of DECMA-1 or rat IgG1 for 24 to 48 h. Cells were harvested by trypsinization, counted and lysates were subjected to the ELISA. In vitro and in vivo apoptosis was further analyzed by in situ detection of fragmented DNA, using the DeadEnd Fluorometric TUNEL System (Promega), the ApopTag Peroxidase In situ Apoptosis Detection Kit (Millipore) and the human Apoptosis Array Kit (ARY009, R & D), according to the manufacturer's instructions. The ApopTag kit was performed on deparaffinized 5 μm-thick sections treated with proteinase K (20 μg/ml) at RT. For cell counting, the cells were trypsinized and counted on a haemocytometer. For tumor BrdU analyses, tissues were stained using an anti-BrdU (ab2284, abcam) antibody, as previously described (27). The proliferation of cells was monitored by a cell proliferation ELISA 5-bromo-2′-deoxyuridine (BrdU) (colorimetric) kit (Roche, Stockholm, Sweden), according to the manufacturers protocol.
Human MCF-7 and BT474 parental cells were purchased from the American Type Culture Collection (ATCC), and cultured according to ATCC recommendations. BT474-Herceptin resistant cells were a kind gift of Dr. Kute (Wake Forest University, Winston-Salem, N.C.) and grown in 10% FBS RPMI-1640 medium (ATCC). Anti-sEcad ectodomain-specific antibodies include DECMA-1 (Sigma), HECD-1 (Calbiochem), SHE78-7 (Calbiochem) and H108 (Santa Cruz Biotechnology). The IAP antibody sampler kit was purchased from Cell Signaling. ALLN proteasome and chloroquine lysosome inhibitors were obtained from Sigma.

The test system of assay [2] is skin (SCC12b, SCC13, PAM212 and CC4A) and the head & neck FADU cell line. As to the kind of experiment: Matrigel invasion of SCC cells. It counts as cell-based. Conditions: for sEcad-induced invasion: PAM212 skin SCC cells, HER inhibitors.
The subject of assay [3] is oropharyngeal FADU and skin SCC (PAM212, CC4A, SCC13 and SCC12b) cell lines. As to the kind of experiment: Proliferation in oropharyngeal and skin SCC cell lines. The format is cell-based. Conditions: PAM212 skin SCC cells; HER inhibitors. The protocol: (§1) For BrdU staining, cells were incubated with 10 μM BrdU for 2 h prior to fixation and processed for immunofluorescence microscopy as previously described (Brouxhon et al., Cancer Res. 67:7654-64, 2007). For BrdU analyses, cells were counted from 6 low-power fields (×100) per section. BrdU incorporation was also analyzed by a cell proliferation ELISA 5-bromo-2′-deoxyuridine (BrdU) (colorimetric) kit (Roche, Stockholm, Sweden), according to the manufacturer's instructions. Migration and invasion of cells were measured using 8.0 μm pore BD BioCoat Control Insert 24-well plates (no. 354578) and Matrigel Invasion Chamber 24-well Plates (no. 354480), respectively (BD Bioscience). Cells were collected, washed, and 2×10^5 cells were plated in 0.4% FBS medium in the top chamber, with 0-20 μg/mL of rhEcad/Fc in the bottom chamber. After 22 h, cells on the top were removed using a cotton swab. Migrated or invaded cells on the lower surface were fixed with methanol, stained with 0.5% crystal violet, examined by bright field microscopy and photographed. Migration or invasion was quantitated by counting migrated or invaded cells in at least ten random high-power fields per insert and expressed as averages. Results are presented as fold change of the number of migrated/invaded cells to the untreated controls in triplicate experiments.

Assay [4] has as its system skin (PAM212, CC4A, SCC12b, SCC13) and oropharyngeal (FADU) cells. As to the kind of experiment: Transwell migration of SCC cells. The format is cell-based. Conditions: PAM212 skin SCC cells; HER inhibitors. The protocol:
as §1

Assay [5] has as its system MCF-7, SKBR3 and MDA-MB-231 breast cancer cell lines. As to the kind of experiment: BrdU proliferation in breast cancer cell lines. The format is cell-based, human. Conditions: for basal and sEcad-induced BrdU incorporation: breast cancer cells, Canertinib 1 μM, Lapatinib 5 μM, Gefitinib 5 μM. The protocol: as §1
In general terms: Dividing cells build labelled thymidine or BrdU into new DNA.

The test system of assay [6] is HER1, HER2, IGF-1R. Put plainly: Western blot of receptor phosphorylation in skin and oropharyngeal SCC cell lines. Conditions: PAM212 cells. It counts as cell-based.
Description: (§2) After brief sonication, lysates were cleared by centrifugation at 4° C. […] After transfer to nitrocellulose membrane and blocking with 1% BSA, samples were probed with primary antibodies. Western blot images were captured using HP Scanjet G4050 and analyzed relative to G3PDH or actin using NIH Scion Image.
(§3) Antibodies against total HER1 and HER 4 and phosphorylated HER1-4, pPI3K, pAkt, pmTOR, p4E-BP1, pRaptor and pp70S6K obtained from Cell Signaling Technologies. Monoclonal antibodies to HER3 and HER4 were obtained from Thermo Scientific. Polyclonal antibody to the extracellular domain of E-cadherin and monoclonal antibody to α-actin were obtained from Santa Cruz Biotechnology. Monoclonal antibody to the extracellular domain of E-cadherin (DECMA-1) and to His Tag were obtained from Sigma and Abcam, respectively. Monoclonal antibody to G3PDH, ubiquitin and rat IgG1 were obtained from Ambion, Zymed and Southern Biotechnology, respectively.
In assay [7] the test system is breast (MCF-7, SKBR3) cells. Put plainly: Transwell migration of breast cancer cells. It counts as cell-based, human. The protocol: as §1, with “After 22 h, cells on the top were removed using a cotton swab.” left out
Assay [8] has as its system HER1-4. As to the kind of experiment: Western blot of HER phosphorylation in breast cancer cells. The format is cell-based, human. To be noted: MCF-7 cells, equimolar concentrations, compared to sEcad alone. An excerpt: The association of sEcad with these RTK was also confirmed by in vitro studies. Specifically, in cell culture systems, extracts from sEcad (rhEcad/Fc:His tagged) treated E-cadherin positive MCF-7 and E-cadherin negative SKBR3 and MDA-MB-231 breast cancer cells were immunoprecipitated with HER1-4-specific antibodies and analyzed by western blotting with a His-tagged-specific antibody. Here, we detected HER1-4-sEcad, HER1-2-sEcad and HER1-sEcad interactions in MCF, SKBR3 and MDA-MB-231 breast cancer cells, respectively. […] Because ligand binding to the HER family of receptors induces the formation of homo- and heterodimers, resulting in phosphorylation on specific tyrosine residues within the cytoplasmic domain (Yarden and Siliwkowski, Nature Reviews. 2:127-137, 2001), we next used western blot assays to examine whether sEcad promotes HER phosphorylation and downstream signaling.
Immunoprecipitation assays were carried out by harvesting tissues or cells with immunoprecipitation lysis buffer (20 mM Tris-HCl, pH 7.5; 137 mM NaCl; 100 mM NaF; 10% glycerol (vol/vol); 1% (vol/vol) Nonidet P-40; 1 mM PMSF and protease inhibitor cocktail (Sigma)). After brief sonication, lysates were cleared by centrifugation at 4° C. […] Western blot images were captured using HP Scanjet G4050 and analyzed relative to G3PDH or actin using NIH Scion Image. […]

Assay [9] has as its system MDA-MB-231 and MCF-7 breast cancer cells. As to the kind of experiment: Matrigel invasion of breast cancer cells. The format is cell-based, human. The protocol:
as §1, with “After 22 h, cells on the top were removed using a cotton swab.” left out

In assay [10] the test system is MEK1/2, ERK1/2, PI3K, Akt, mTOR, p70S6K, 4EBP1. As to the kind of experiment: Western blot of downstream MAPK-PI3K/Akt/mTOR signaling in SCC cell lines. The format is cell-based. To be noted: PAM212 cells. A general note: In western blotting, separated proteins are transferred to a membrane and probed.
Description: as §2, §3
[11] abbreviates: MCF-7 cells, 24 h, equimolar concentrations.

Where a SMILES comes first, the peptide text is derived from it. [ ]: non-standard residue; d: D form. Nle = CCCC[C@H](N)C(=O)O

As for `CCCC[C@@H](C=O)NC(=O)[C@H](CC(C)C)NC(=O)[C@H](CC(C)C)NC(C)=O` [ALLN] (Ac-Leu-Leu-[Nle]-aldehyde), in assay [1], the “HER1-4 expression in anti-sEcad mAb treated cells in presence of inhibitor” value is recorded as “rescue of HER1-4 expression” and the “anti-sEcad mAb-induced apoptosis in presence of inhibitor” value was “inhibited”.
Regarding `CCN(CC)CCCC(C)Nc1ccnc2cc(Cl)ccc12` (stereo not shown) [Chloroquine], in [1], the “HER1-4 expression in anti-sEcad mAb treated cells in presence of inhibitor” value is “rescued HER1-4 membrane expression” and the “anti-sEcad mAb-induced apoptosis in presence of inhibitor” value was “prevented anti-sEcad mAb-induced apoptosis at low doses”.
With `CNC(=O)[C@H](Cc1c[nH]c2ccccc12)NC(=O)[C@@H](CC(=O)NO)CC(C)C` [GM6001, Ilomastat], the sEcad-stimulated invasion entry in assay [2] (PAM212 cells treated with 20 μg/mL rmEcad/Fc) is reported as “completely blocked”.
On to `C=CC(=O)Nc1cc2c(Nc3ccc(F)c(Cl)c3)ncnc2cc1OCCCN1CCOCC1` [Canertinib], for which the sEcad-induced proliferation result in assay [3] is “effectively inhibited sEcad-induced proliferation, migration and invasion”. Also, the sEcad-induced invasion result in [2] was “effectively inhibited sEcad-induced proliferation, migration and invasion”. Besides, the sEcad-induced migration result in assay [4] is “effectively inhibited sEcad-induced proliferation, migration and invasion”. Also, in assay [5], the “basal and sEcad-induced BrdU incorporation” value was “significantly reduced both basal and sEcad-induced BrdU incorporation”. In addition, in assay [6], the “sEcad-induced HER1 phosphorylation” value was “completely abrogated” and the “sEcad-induced HER2 phosphorylation (pHER2)” value is recorded as “completely abrogated”. In addition, in [6] (in the presence of sEcad, compared to corresponding controls), the phospho-IGF-1R levels entry is “did not alter”.
Turning to “rhEGF: Recombinant human EGF (Enzo Life Sciences) (NSDSECPLSHDGYCLHDGVCMYIEALDKYACNCVVGYIGERCQYRDLKWWELR)”, the migration entry in assay [7] (setting [11]) is “significantly increased proliferation, migration and invasion”. Also, the proliferation entry in assay [5] (setting [11]) was “significantly increased proliferation, migration and invasion”. Besides, the “HER1 and ERK1/2 phosphorylation” value in assay [8] is “more potent effects on HER1 and ERK1/2 phosphorylation”. Besides, the invasion result in assay [9] (setting [11]) was “significantly increased proliferation, migration and invasion”.
As to `FC(F)(F)c1ccc(/C=C/c2nc(COc3ccc(CCCCn4ccnn4)cc3)co2)cc1` [Mubritinib], the “basal and rhEcad/Fc-mediated migration” value in assay [7] (breast cancer cells (MCF-7)) is given as “only blocked sECad-induced MCF-7 migration”.
`COc1cc2ncnc(Nc3ccc(F)c(Cl)c3)c2cc1OCCCN1CCOCC1` [Gefitinib]: the sEcad-induced proliferation result in assay [3] is “effectively inhibited sEcad-induced proliferation, migration and invasion”. The sEcad-induced invasion result in assay [2] was “effectively inhibited sEcad-induced proliferation, migration and invasion”. In addition, the sEcad-induced migration entry in assay [4] is “effectively inhibited sEcad-induced proliferation, migration and invasion”. In assay [10], the “sEcad-induced phosphorylation of 4EBP1” value was “only minimal effects”; the “sEcad-induced phosphorylation of ERK1/2, Akt and p70S6K” value was “decreased”; the “sEcad-induced phosphorylation of PI3K” value is listed as “decreased”. Moreover, the “basal and sEcad-induced BrdU incorporation” value in [5] was “significantly reduced both basal and sEcad-induced BrdU incorporation”. Moreover, the “basal and sEcad-induced invasion” value in assay [9] (MDA-MB-231 cell line, compared to untreated controls) is “significantly reduced”.
